Square brackets hold non-standard residues; d marks the D form. Peptide text beside a SMILES is read from it. pS = N[C@@H](COP(=O)(O)O)C(=O)O
How the values were obtained:
[1] = test system: mouse cerebellar tissue (NPC mouse model); assay: Lipid levels in Hst1-treated NPC mouse cerebellar tissue
Description: In this respect, in addition to reducing the accumulation of cholesterol in liver tissue, histatin peptides may also be used to alter fatty acid and cholesterol metabolism in neuronal tissue thereby reducing changes associated with neurodegeneration.

[2] = test system: NPC1 KD cells; assay: LC3 immunolocalization in NPC1 KD cells (autophagy); format: cell-based; conditions: 20 μM or 50 μM
Description: Autophagy. NPC1-deficiency results in increased autophagy as evidenced by elevated microtubule-associated protein 1 light chain 3 (LC3) levels, numerous autophagic vacuoles and enhanced degradation of long-lived proteins (Pacheco, et al. (2007) Human Mol. Genet. 16(12):1495-1503).

[3] = Circular dichroism secondary structure analysis (DichroWeb); format: physicochemical
Method: Circular Dichroism (CD). CD analysis was performed on a Jasco 815 CD spectrometer at room temperature. TMEM97 (108-176) and Hst1 full-length peptides were prepared as 10 mM stock in 25% DMSO and water, respectively, and diluted to 0.15 mg/mL final concentration in 10 mM […] buffer. A total of 400 μL of each sample was added into a 1 mm quartz sample cell, and CD spectra were recorded from 260 nm to 190 nm wavelength. Data points were measure in 0.5 nm wavelength step at a scanning speed of 100 nm/minute. A total of five spectra were acquired for each sample and averaged. […] buffer without peptide was used as a control curve, which was subsequently subtracted from the CD spectra of peptide samples. The resulting buffer control subtracted CD intensity row data in millidegrees were submitted to DichroWeb and fitted with multiple embedded models and converted to mean residue ellipticity.
Subsequently, the hypothesis that interaction between Hst1 and TMEM97 could affect the structure of each protein was tested. Also, the secondary structure of Hst1 and TMEM97 was tested in solution using CD measurements. It was noted that Hst1 alone is mostly disordered (over 50%) with some degree of β-strand, while TMEM97 (108-176) contains some α-helical and β-strand regions with ˜34% disordered regions. According to CD spectra comparison, there seemed to be more secondary structures formed upon Hst1 binding to TMEM97 (108-176).

[4] = molecular target: TMEM97 (Homo sapiens, UniProt Q5BJF2); assay: Co-immunoprecipitation / western blot in HCE cells; format: binding; set-up: endogenous in cells; host or cells: HCE cells; conditions: 20 μM Hst1 for 6 hours, IP TMEM97 antibody
Method: Immunoprecipitation/Western Blot Analysis. The day before, HCE cells were plated at the concentration of 5×10^6 cells/well in a 100 mm dish and were treated with 20 μM of Hst1 for 6 hours. Cells were harvested with lysis buffer (1% NP40, 137 mM sodium chloride, 20 mM Tris [pH 8.0], and 10% glycerol) and the lysates were incubated with 5 μL of a validated rabbit polyclonal anti-TMEM97 antibody (Novus Bio.; Littleton, Colo.) overnight at 4° C. The lysates were incubated with 30 μL of a suspension of protein A/G (Santa Cruz Biotechnology; Dallas, Tex.) for 2 hours at 4° C. with gentle shaking. After centrifugation for 5 minutes, pellets were washed three times and resuspended in 50 μL of 2×NUPAGE® LDS sample buffer (Invitrogen; Carlsbad, Calif.) and boiled for 10 minutes.
For detecting Hst1 bound to TMEM97 protein, the lysates were subjected to electrophoresis on 12% NUPAGE® Bis-Tris gels (Invitrogen; Carlsbad, Calif.), followed by transfer to nitrocellulose membranes (Amersham Protran, GE Healthcare; Pittsburgh, Pa.). Membranes were then blocked with Tris-buffered saline containing 3% nonfat dry milk for 1 hour and incubated with rabbit primary antibody against Hst1 (Mybiosource; San Diego, Calif.) (1:1000) overnight at 4° C. […]

[5] = CD, fraction of secondary structure

Sequence of TMEM97 (Q5BJF2 whole entry): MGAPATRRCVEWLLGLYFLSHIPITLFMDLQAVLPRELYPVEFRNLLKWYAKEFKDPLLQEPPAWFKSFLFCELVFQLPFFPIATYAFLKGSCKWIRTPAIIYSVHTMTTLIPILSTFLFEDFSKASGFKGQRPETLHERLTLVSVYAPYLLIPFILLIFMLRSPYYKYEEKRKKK

## CC(C)C[C@H](NC(=O)[C@H](Cc1ccc(O)cc1)NC(=O)[C@H](CC(N)=O)NC(=O)[C@H](CO)NC(=O)CNC(=O)[C@H](Cc1ccc(O)cc1)NC(=O)[C@H](CC(=O)O)NC(=O)CNC(=O)[C@H](Cc1ccc(O)cc1)NC(=O)[C@H](Cc1ccccc1)NC(=O)[C@@H]1CCCN1C(=O)[C@H](Cc1ccccc1)NC(=O)[C@H](CCC(=O)O)NC(=O)[C@H](CCCNC(=N)N)NC(=O)[C@H](Cc1c[nH]cn1)NC(=O)[C@H](CO)NC(=O)[C@H](Cc1c[nH]cn1)NC(=O)[C@H](Cc1c[nH]cn1)NC(=O)[C@H](CCCCN)NC(=O)[C@H](CCC(=O)O)NC(=O)[C@H](Cc1c[nH]cn1)NC(=O)[C@H](Cc1ccccc1)NC(=O)[C@H](CCCCN)NC(=O)[C@H](CCCNC(=N)N)NC(=O)[C@H](CCCNC(=N)N)NC(=O)[C@H](Cc1ccc(O)cc1)NC(=O)CNC(=O)[C@H](Cc1c[nH]cn1)NC(=O)[C@H](Cc1c[nH]cn1)NC(=O)[C@H](CCCNC(=N)N)NC(=O)[C@H](CCCCN)NC(=O)[C@H](CCC(=O)O)NC(=O)[C@H](Cc1c[nH]cn1)NC(=O)[C@H](COP(=O)(O)O)NC(=O)[C@@H](N)CC(=O)O)C(=O)N[C@@H](Cc1ccc(O)cc1)C(=O)N[C@@H](CC(=O)O)C(=O)N[C@@H](CC(N)=O)C(=O)O [Hst1] (H-D[pS]HEKRHHGYRRKFHEKHHSHREFPFYGDYGSNYLYDN-OH; N-terminus and C-terminus assumed)
[1]; 7-week-old NPC mouse model
  ceramides (Cer NS, HexCer NS, SM): significantly increasing
  gangliosides (GM3, GM2 and GM1): significantly increasing
[1]; NPC1−/− mouse, 9-week-old
  phosphatidylinositol 4,5-bisphosphate (PIP2; 20:4/18:0) levels: significantly decrease
[2]
  LC3 levels: dose-dependent reduction in LC3 levels
[3]; CD in solution
  disordered regions: over 50%
[3]; [5]
  Helix: 0.02
  Strand: 0.29
  Turns: 0.15
  Unordered: 0.54
[4]
  co-precipitation with TMEM97: co-precipitated with TMEM97

Reference: patent US20230190870A1, “Method for Treating Lysosomal Storage Diseases with Histatin Peptides” (THE BOARD OF TRUSTEES OF THE UNIVERSITY OF ILLINOIS, priority 2020, published 2023)
